Laboratory results taken from patent US20240383910A1, “SMALL MOLECULE BTK DEGRADERS AND METHODS OF USE THEREOF” (Baylor College of Medicine, priority 2023, published 2024).

How the values were obtained:
[1] = target: T1, BTK (Homo sapiens, UniProt Q06187); experiment: TR-FRET saturation binding assay of the BTK tracer
Experimental: To measure the binding affinities between PROTACs and BTK, a time-resolved fluorescence resonance energy transfer (TR-FRET) competition binding assay was developed. A BTK tracer was synthesized by conjugating an ibrutinib-based reversible noncovalent binder with the BODIPY-FL dye (FIG. 1). […] In the presence of the BTK tracer, competition assays were performed to measure the binding affinities between BTK and its inhibitors and PROTACs. […] The very weak BTK binding affinities for PS-RC-1, PS-RC-2, PS-RC-3 and PS-RC-4 explain their minimal BTK degradation effects in cells and further support that the observed growth inhibitory effect of PS-RC-1 in Mino cells is unrelated to the BTK pathway.
Target sequence in this assay (Q06187 whole entry, species assumed): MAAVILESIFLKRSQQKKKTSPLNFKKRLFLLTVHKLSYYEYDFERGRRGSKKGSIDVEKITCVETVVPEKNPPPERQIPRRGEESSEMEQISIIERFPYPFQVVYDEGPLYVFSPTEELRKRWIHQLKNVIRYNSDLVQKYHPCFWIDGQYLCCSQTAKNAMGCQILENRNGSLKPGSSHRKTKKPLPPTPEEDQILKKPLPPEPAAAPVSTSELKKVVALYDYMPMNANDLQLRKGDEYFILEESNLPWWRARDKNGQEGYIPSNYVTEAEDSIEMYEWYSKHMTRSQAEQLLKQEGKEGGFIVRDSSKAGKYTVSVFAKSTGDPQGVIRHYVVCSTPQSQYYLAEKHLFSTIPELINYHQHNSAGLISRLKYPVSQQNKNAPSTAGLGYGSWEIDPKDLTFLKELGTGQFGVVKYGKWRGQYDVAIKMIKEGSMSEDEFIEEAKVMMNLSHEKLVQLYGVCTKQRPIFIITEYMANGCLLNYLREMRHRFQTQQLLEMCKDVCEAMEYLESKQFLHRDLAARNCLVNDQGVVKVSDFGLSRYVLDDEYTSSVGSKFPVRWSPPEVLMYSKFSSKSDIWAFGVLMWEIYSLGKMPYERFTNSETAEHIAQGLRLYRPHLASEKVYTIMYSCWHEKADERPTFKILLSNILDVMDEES

[2] = target: T2, GSPT1 (Homo sapiens, UniProt P15170+Q96SW2); experiment: Western blotting for GSPT1 in Mino cells; assay type: cell-based; details: up to 1000 nM, 24 h, Western blot
T2 construct: host or cells: Mino
T2 sequence (P15170 whole entry): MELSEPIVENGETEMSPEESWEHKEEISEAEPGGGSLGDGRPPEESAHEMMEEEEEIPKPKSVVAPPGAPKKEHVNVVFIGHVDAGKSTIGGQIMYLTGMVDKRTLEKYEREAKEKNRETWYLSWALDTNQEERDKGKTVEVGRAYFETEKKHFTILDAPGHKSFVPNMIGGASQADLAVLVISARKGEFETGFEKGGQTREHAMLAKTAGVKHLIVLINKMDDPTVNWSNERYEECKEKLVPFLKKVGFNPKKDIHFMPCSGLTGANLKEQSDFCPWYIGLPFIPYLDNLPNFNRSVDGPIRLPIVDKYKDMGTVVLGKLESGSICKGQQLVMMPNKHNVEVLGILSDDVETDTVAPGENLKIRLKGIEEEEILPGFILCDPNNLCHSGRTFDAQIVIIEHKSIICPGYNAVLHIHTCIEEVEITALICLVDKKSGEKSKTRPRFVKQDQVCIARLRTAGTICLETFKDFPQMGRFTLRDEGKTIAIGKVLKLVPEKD
T2 sequence (Q96SW2 whole entry): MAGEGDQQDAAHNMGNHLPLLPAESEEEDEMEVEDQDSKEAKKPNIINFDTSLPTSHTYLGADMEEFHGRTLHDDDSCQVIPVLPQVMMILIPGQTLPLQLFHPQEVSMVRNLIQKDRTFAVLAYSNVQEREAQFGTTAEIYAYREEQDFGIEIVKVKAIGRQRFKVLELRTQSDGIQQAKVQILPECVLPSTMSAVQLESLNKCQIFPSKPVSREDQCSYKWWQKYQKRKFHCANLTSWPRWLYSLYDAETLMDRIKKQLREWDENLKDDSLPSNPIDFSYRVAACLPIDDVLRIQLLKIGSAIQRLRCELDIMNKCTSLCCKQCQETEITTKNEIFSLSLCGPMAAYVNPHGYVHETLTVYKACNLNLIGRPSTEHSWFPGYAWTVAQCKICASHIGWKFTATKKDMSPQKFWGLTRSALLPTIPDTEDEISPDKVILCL
T2 sequence (Q16531 whole entry partner): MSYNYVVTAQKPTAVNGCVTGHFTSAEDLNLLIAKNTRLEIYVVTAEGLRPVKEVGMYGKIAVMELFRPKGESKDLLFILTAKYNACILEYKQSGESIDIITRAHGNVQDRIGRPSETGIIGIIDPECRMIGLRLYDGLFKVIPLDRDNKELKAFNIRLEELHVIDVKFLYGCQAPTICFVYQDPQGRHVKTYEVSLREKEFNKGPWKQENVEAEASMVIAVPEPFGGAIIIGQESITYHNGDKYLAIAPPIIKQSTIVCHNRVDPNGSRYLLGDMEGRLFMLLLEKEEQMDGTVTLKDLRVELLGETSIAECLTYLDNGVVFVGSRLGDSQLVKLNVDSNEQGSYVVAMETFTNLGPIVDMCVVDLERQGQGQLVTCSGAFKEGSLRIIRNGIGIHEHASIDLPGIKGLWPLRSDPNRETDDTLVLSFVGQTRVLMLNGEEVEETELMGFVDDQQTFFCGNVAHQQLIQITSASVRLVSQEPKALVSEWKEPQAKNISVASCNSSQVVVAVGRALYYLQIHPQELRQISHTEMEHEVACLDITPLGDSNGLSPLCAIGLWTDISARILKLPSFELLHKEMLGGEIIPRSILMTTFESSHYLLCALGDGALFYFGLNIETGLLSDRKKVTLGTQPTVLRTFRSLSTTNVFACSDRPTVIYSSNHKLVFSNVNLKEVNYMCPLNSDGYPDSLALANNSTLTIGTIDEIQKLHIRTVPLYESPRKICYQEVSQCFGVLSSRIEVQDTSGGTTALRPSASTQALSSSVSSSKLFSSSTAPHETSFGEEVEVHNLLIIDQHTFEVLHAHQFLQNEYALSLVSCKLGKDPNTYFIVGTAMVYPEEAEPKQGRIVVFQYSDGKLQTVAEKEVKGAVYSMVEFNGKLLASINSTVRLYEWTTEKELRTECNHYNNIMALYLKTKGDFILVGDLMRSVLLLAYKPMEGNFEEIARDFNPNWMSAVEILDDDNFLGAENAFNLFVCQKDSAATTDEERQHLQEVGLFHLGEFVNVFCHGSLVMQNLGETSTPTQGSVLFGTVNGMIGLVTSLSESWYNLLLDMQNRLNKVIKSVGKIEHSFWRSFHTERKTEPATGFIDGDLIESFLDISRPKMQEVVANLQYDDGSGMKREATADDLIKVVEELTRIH
Experimental: Panel a. […] Panel b. […] Panel c. […] Panel d-e. […] Panel g.
Mino cells were seeded into the wells of six-well plates at the density of 5×10^5 cells per mL in 2 mL of complete RPMI-1640 culture medium. After overnight adaptation, cells were treated with serially diluted compounds (from 1,000-1.6 nM, 5-fold dilution) for 24 hours. After treatment, whole cell lysates for immunoblotting were prepared by pelleting Mino cells at 4° C. and 200×g for 5 minutes. The resulting cell pellets were washed once with ice-cold PBS and lysed in 1×RIPA lysis buffer (Alfa Aesar, Cat. No. J62524) supplemented with protease and phosphatase inhibitor cocktail (Thermo Fisher, Cat. No. 78430). Lysates were centrifuged at 15,000×g for 10 min at 4° C. and protein concentrations were assessed using BCA assay (Pierce, Cat. No. 23225). Same amounts of protein (30 μg) for each sample were loaded onto sodium dodecyl sulfate-polyacrylamide gel, separated by electrophoresis (Bio-Rad) at 120 V for 1.5 h and transferred to PVDF membrane using a Transblot Turbo system (Bio-Rad). […] All Western blots were subsequently processed and quantified with Imager software ImageJ and protein level was normalized to the B-actin loading controls.

[3] = target: T1, BTK; experiment: Western blotting for BTK in Mino cells; assay type: cell-based; design: host or cells: Mino; details: 24 h, Western blot
Experimental: Mino cells were seeded into the wells of six-well plates at the density of 5×10^5 cells per mL in 2 mL of complete RPMI-1640 culture medium. After overnight adaptation, cells were treated with serially diluted compounds (from 1,000-1.6 nM, 5-fold dilution) for 24 hours. After treatment, whole cell lysates for immunoblotting were prepared by pelleting Mino cells at 4° C. and 200×g for 5 minutes. The resulting cell pellets were washed once with ice-cold PBS and lysed in 1×RIPA lysis buffer (Alfa Aesar, Cat. No. J62524) supplemented with protease and phosphatase inhibitor cocktail (Thermo Fisher, Cat. No. 78430). Lysates were centrifuged at 15,000×g for 10 min at 4° C. and protein concentrations were assessed using BCA assay (Pierce, Cat. No. 23225). Same amounts of protein (30 μg) for each sample were loaded onto sodium dodecyl sulfate-polyacrylamide gel, separated by electrophoresis (Bio-Rad) at 120 V for 1.5 h and transferred to PVDF membrane using a Transblot Turbo system (Bio-Rad). After blocking for 1 h at room temperature in 1% BSA-TBST, the membranes were immunoblotted with the specified primary antibodies at the dilution of 1:1000 in TBST (Cell Signaling Technology: anti-BTK Cat. No. 8547, anti-IKZF1 Cat. No. 14859, anti-IKZF3 Cat. No. 15103, anti-β-actin Cat. No. 4570, Proteintech: anti-GSPT1, Cat. No. 10763-1-AP) overnight at 4° C. and the HRP-conjugated secondary antibodies (Cell Signaling, Cat. No. 7074, 1:1000 in TBST) for 1 h at room temperature. Imaging was performed using the ECL Prime chemiluminescent Western blot detection reagents (Kindle Biosciences, Cat. No. R1100) by visualization of the blots with an Imager (Kindle Biosciences, Cat. No. D1001). All Western blots were subsequently processed and quantified with Imager software ImageJ and protein level was normalized to the B-actin loading controls.
Target sequence in this assay (Q06187 whole entry): as the sequence (Q06187 whole entry, species assumed) above

[4] = target: T3, BTK-nLuc fusion protein (Homo sapiens, UniProt Q06187); experiment: BTK-nLuc endpoint degradation assay in HEK-293T cells; assay type: cell-based; details: HEK-293T cells stably expressing BTK-nLuc, 24 h
T3 construct: Addgene (vector) HsCD00514411; pLenti6.2-ccdB-Nanoluc 87078; host or cells: HEK-293T17
T3 sequence (Q06187 whole entry, the tested form may be a part): as the sequence (Q06187 whole entry, species assumed) above
T3 sequence (Q96SW2 whole entry, further chain, the tested form may be a part): as the sequence (Q96SW2 whole entry) above
T3 sequence (Q16531 whole entry partner, the tested form may be a part): as the sequence (Q16531 whole entry partner) above
Experimental: (§1) DD-03-171 is a known BTK degrader and used as a positive control. Panel f: HEK-293T cells stably expressing a BTK-nLuc fusion protein were treated with indicated compounds (same as in a-e) for 24 h. The BTK degradation was determined by evaluating luminescence signals of NanoLuc.
(§2) The nanoluc activity was determined using the furimazine substrate (Promega, Cat. No. N1110). Briefly, after 4 h incubation of indicated compounds, cells were directly lysed by addition of 100 μL of nanoluciferase detection solution, containing lysis buffer and furimazine (1/50 dilution). For the 24-hour treatment group, the old medium was replaced with 100 μL fresh opti-MEM, followed by the addition of equal volume of lysis buffer plus furimazine (1/50 dilution).

[5] = target: T4, BTK-nLuc fusion protein (Homo sapiens, UniProt Q06187+Q96SW2); experiment: as above; assay type: cell-based; details: HEK-293T cells stably expressing BTK-nLuc, 24 h
T4 construct: Addgene (vector) HsCD00514411; pLenti6.2-ccdB-Nanoluc 87078; host or cells: HEK-293T17
T4 sequence (Q06187 whole entry, the tested form may be a part): as the sequence (Q06187 whole entry, species assumed) above
T4 sequence (Q96SW2 whole entry, the tested form may be a part): as the sequence (Q96SW2 whole entry) above
T4 sequence (Q16531 whole entry partner, the tested form may be a part): as the sequence (Q16531 whole entry partner) above
Experimental: as §1, §2

[6] = target: T1, BTK; experiment: BTK ligand competition assay in Ramos cells (Western blotting for BTK); assay type: cell-based; design: host or cells: Ramos; details: co-treated with 100 nM PS-2, 24 hours, PS2W at 50 μM
Target sequence in this assay (Q06187 whole entry): as the sequence (Q06187 whole entry, species assumed) above
Experimental: Ramos cells were incubated overnight, and then the indicated compounds were added and incubated for 24 hours, followed by Western blotting for BTK degradation.
Ramos cells were incubated overnight, and then the indicated compounds were added and incubated for 24 hours, followed by Western blotting for BTK degradation (FIG. 7).

CC1=CC(C)=[N+]2C1=Cc1ccc(CCC(=O)NCCCN(C)CCCC(=O)N3CCC[C@@H](n4nc(-c5ccc(Oc6ccccc6)cc5)c5c(N)ncnc54)C3)n1[B-]2(F)F [BTK tracer]
Kd [1]: 155 nM

Cc1ccc(NC(=O)NCc2ccc3c(c2)CN(C2CCC(=O)NC2=O)C3=O)cc1Cl (centres unmarked) [CC-885, reference compound]
GSPT1 degradation (result in words) [2]: potent GSPT1 degrader

Cc1c(NC(=O)c2ccc(C(C)(C)C)cc2)cccc1-c1cn(C)c(=O)c(Nc2ccc(C(=O)N3CCN(CCCCCCNC(=O)CNc4cccc5c4C(=O)N(C4CCC(=O)NC4=O)C5=O)CC3)cc2)n1 (centres unmarked) [DD-03-171, reference compound]
BTK WB Dmax [3]: 99% | DC50 ([3]; read-out: BTK WB DC50): 0.9 nM | BTK degradation (result in words) ([3]; up to 1000 nM): potently induces BTK degradation | BTK-nLuc Dmax [4]: 96% | DC50 [5]: 25.9 nM

CN1CCN(c2ccc(Nc3nccc(Oc4ccccc4)n3)cc2)CC1 [PS2W]
competition with PS-2 induced BTK degradation (BTK ligand) [6]: cannot completely compete out
